Here are results for 2 compounds from patent publication US20250332178A1, “METHODS OF TREATING MYCOBACTERIAL INFECTIONS USING TETRACYCLINE COMPOUNDS” (priority 2018, published 2025).

For one data set, the system named is M. avium. Briefly: MIC (CLSI broth dilution), slow-growing NTM isolates. It is filed as cell-based.
A further data set deals with M. chimaera. The description is as above. The data set is classed as cell-based.
The conditions of data set [1]: 52 patients, M. abscessus and M. chelonae infections; Wallace et al.; cited from earlier work.
In data set [2] the test system is M. abscessus subsp. abscessus CIP 104536. The data set is classed as cell-based. The following applies: at 4 mg/L, after 7 days of drug exposure; subculture plates 16 mg/L.

Molecules are shown by their SMILES. Values after ≈ are worked out from the molar mass of the structure shown.

As usually defined, the MIC is the lowest concentration that inhibits growth of the organism. With `NCC[C@H](O)C(=O)N[C@@H]1C[C@H](N)[C@@H](O[C@H]2O[C@H](CN)[C@@H](O)[C@H](O)[C@H]2O)[C@H](O)[C@H]1O[C@H]1O[C@H](CO)[C@@H](O)[C@H](N)[C@H]1O` [Amikacin, amikacin], the MIC with M. avium (isolate 1, MAC) was 32 µg/mL (≈ 54.6 µM); against M. avium (isolate 2, MAC), 16 µg/mL (≈ 27.3 µM); in the data set on M. avium (isolate 3, MAC) it was 8 µg/mL (≈ 13.7 µM); in the data set on M. chimaera (isolate 4, MAC) it was 8 µg/mL (≈ 13.7 µM); in the data set on M. chimaera (isolate 5, MAC), 8 µg/mL (≈ 13.7 µM).
`CN(C)c1cc(NC(=O)CNC(C)(C)C)c(O)c2c1C[C@H]1C[C@H]3[C@H](N(C)C)C(O)=C(C(N)=O)C(=O)[C@@]3(O)C(O)=C1C2=O` [Tigecycline, tigecycline]: the “dose reductions due to nausea, vomiting or anorexia” value in data set [1] is on record as “Approximately half of the patients had dose reductions”. Also, the “selection of drug resistance above the spontaneous mutation frequency” value in data set [2] was 0.6%.
